Experimental data taken from patent US4454136A, “Substituted benzopyranotriazoles and antiallergic use” (Beecham Group Limited, priority 1980, dated 1984).

Test system: rat PCA
Assay: Passive Cutaneous Anaphylaxis (PCA) in rats
Format: in vivo, Male Wistar rats
Settings: sc
Experimental: Serum containing heat-labile homocytotropic antibody was raised in rats to crystallized ovalbumin XOA by the method of Mota (I. Mota, Immunology, 7, 681, (1964)) using Bordettela pertussis vaccine as adjuvant.
Passive cutaneous anaphylaxis (PCA) was carried out by a method based on that of Ovary and Bier, (A. Ovary and O. G. Bier, Proc. Soc. Exp. Bio. Med 81, 584, (1952)) as modified by Goose and Blair. (Immunology 16, 749 (1969)).
Male Wistar rats of 250-300 g were give 0.1 ml of each of six twofold serial dilutions of pooled antiserum in 0.9% saline injected intradermally into separate sites on their shaved backs. Later (72 hours) the animals were challenged by intravenous injection of 0.3 ml of a 1% solution of ovalbumin in an isotonic solution of saline buffered with 0.05 M, pH 7.2, Sorenson Buffer (PBS), mixed with 0.2 ml of a 5% solution of Pontamine Sky Blue (6BX C.I. 24410, Raymond A. Lamb, London) in isotonic saline. The rats were killed after 20 minutes and the diameter of the blue wheals at the antibody injection sites were measured on the outer surface of the skin. The starting dilution of the serum was adjusted so that there was no response, after challenge, at the injection site of the highest dilution and a maximum response at the lowest dilutions. Typically six twofold serial dilutions of the serum from 1/4 to 1/128 were used.
Compounds were tested for their ability to reduce the diameter of the wheals at those intradermal sites which in control animals gave less than maximum response. Each dose of the compound was administered to six rats at a measured time prior to intravenous challenge with ovalbumin. Control groups of six rats were given the same volume (0.2 ml: 100 g^-1) of carrier fluid at the same time prior to the challenge.
The results were calculated as follows: % inhibition of PCA=100 (1-a/b) where a=the sum of the diameters of the wheals produced in the test animal at the sites of antibody dilutions as used in control groups and b=the mean sum of the diameters of the wheals produced in the control groups of animals at those antibody sites where at least five out of six of the animals gave less than maximum response. A typical variation in the control group of animals was SEM±6%.
*Time between administration of compound and antigen challenge.

## Cc1c(O)ccc2c(=O)c3[nH]nnc3oc12 [Example 1f, 6-Hydroxy-5-methyl-9-oxo-1H,9H-benzopyrano[2,3-d]-v-triazole]
PBS with NaHCO3, 10' before antigen challenge, 10 mg/kg
  % inhibition of rat PCA: 32%
PBS with NaHCO3, 30' before antigen challenge, 10 mg/kg
  % inhibition of rat PCA: 19%

## Cc1c(OS(C)(=O)=O)ccc2c(=O)c3[nH]nnc3oc12 [Example 1e, 6-Mesyloxy-5-methyl-9-oxo-1H,9H-benzopyran o[2,3-d]-v-triazole]
PBS with NaHCO3, 10' before antigen challenge, 5 mg/kg
  % inhibition of rat PCA: 42%
PBS with NaHCO3, 10' before antigen challenge, 20 mg/kg
  % inhibition of rat PCA: 57%
PBS with NaHCO3, 30' before antigen challenge, 5 mg/kg
  % inhibition of rat PCA: 18%
PBS with NaHCO3, 30' before antigen challenge, 20 mg/kg
  % inhibition of rat PCA: 41%
